Experimental findings from patent publication US20090318402A1, “RUTHENIUM (II) COMPOUNDS” (The University Court of the University of Edinburg, priority 2006, published 2009) are described below.

The structures appear in SMILES notation.

The nature of data set [1]: Reactions with ascorbate (UV-Vis, 1H NMR). Type of data set: physicochemical. Particulars: 5 equivalents ascorbate, 10 mM phosphate buffer, pH 7.35 (UV-Vis) / 7.30 (NMR), 310K.
Another data set relates to A2780 cancer cell line. Description: Cytotoxicity: inhibitory growth activity, sulforhodamine B assay. Type of data set: cell-based. Particulars: 24 hours drug exposure, 96 hours recovery, SRB. The method, then: (§1) Compounds were tested for inhibitory growth activity against the A2780 and A549 cancer cell lines. Each drug was tested for activity at six different concentrations (100 μM, 50 μM, 10 μM, 5 μM, 1 μM and 0.1 μM) and each concentration was tested in triplicate, relative to a cisplatin control.
The A2780 cancer cell line was maintained by growing the cells in RPMI media supplemented with 5% fetal bovine serum, 1% penicillin/streptomycin and 2 mM L-glutamine. The cells were split when approximately 70-80% confluence were reached using 0.25% trypsin/EDTA. The cells were kept incubated at 37° C., 5% CO2, high humidity. The A549 cancer cell line was maintained by growing the cells in DMEM media supplemented with 10% fetal bovine serum, 1% penicillin/streptomycin and 2 mM L-glutamine. The cells were split when approximately 70-80% confluence were reached using 0.25% trypsin/EDTA. The cells were kept incubated at 37° C., 5% CO2, high humidity.
A2780 cancer cells were plated out at 50000 cells/well (±10%) on day one. A549 cancer cells were plated out at 20000 cells/well (±10%) on day two. On day three the test compound was dissolved in DMSO to give a stock solution of 20 mM and serial dilutions were carried out in DMSO to give concentrations of drug in DMSO of 10 mM, 2 mM, 1 mM, 0.2 mM and 0.02 mM. These were added to the wells to give the six testing concentrations and a final concentration of DMSO as 0.5% (v/v) with a total volume of drugs and media to be 200 μl. The cells were exposed to the drug for 24 hours then, after drug removal, fresh media was given and the cells were incubated for 96 hours recovery time. The remaining biomass was estimated by the sulforhodamine B assay. The cells were then fixed using 50 μl 50% (w/v) TCA and incubated at 4° C. for one hour. The biomass was stained with 100 μl 0.4% (w/v) sulforhodamine B in 1% acetic acid. The dye was solubilised with Tris Buffer and the absorbance was read using a BMG Fluostar microplate reader at 595 nm. A baseline correction at 690 nm was subtracted from the values. The absorbance for 100% cell survival was based on the average absorbance for the 0.1 μM dosed triplicate for that drug. IC50 values were calculated using XL-Fit version 4.0.
A general note: In SRB staining, fixed cells bind dye roughly in proportion to their protein.

In data set [2] the test system is A549 cancer cell line. Description: Cell viability after increasing thiol levels (NAC pre-incubation). The format is cell-based. Particulars: 5 μM drug, 24 hours incubation, 96 hour recovery, 5 mM NAC for two hours; FIG. 5. The method, then:
Cell viability was determined in the A549 cancer cell line after cells were pre-incubated with 5 mM NAC to increase intracellular thiol levels. […] This implies that ROS are involved in cell death.

Data set [3] can be described thus: Solution chemistry in phosphate buffer mimicking cell test conditions (NMR, ESI-MS). Type of data set: physicochemical. Particulars: 100 μM, 10 mM phosphate buffer, 95% D2O, 5% MeOD, 310 K, 24 h; pH* 7.35 (8), 7.40 (10), 7.31 (13), 7.38 (21). As to the method:
Solutions of four ruthenium complexes (8, 10, 13 and 21) in MeOD were diluted down in 10 mM phosphate buffer/D2O to give a final concentration of 100 μM ruthenium (95% D2O, 5% MeOD) and NMR spectra were recorded at 310 K initially (time ca. 15 minutes) and after 24 h. The pH* of the samples was 7.35 (8), 7.40 (10), 7.31 (13) and 7.38 (21), The samples were kept in the water bath at 310 K between acquisitions. After 24 hour, ESI-MS was performed on the samples. These conditions were chosen to mimic pH, concentration, exposure time and temperature for the biological cell tests.

Another data set relates to A549 cancer cells. Description: Detection of reactive oxygen species (ROS) with DCFH-DA probe. The format is cell-based. Particulars: 25 μM, 0.5% DMSO, 6.5 hours, 310 K, cells pre-loaded with DCFH-DA; FIG. 4. As to the method:
The generation of ROS can be detected inside living cells using the molecular probe DCFH-DA. This probe crosses the membrane into cells where it is hydrolyzed to DCFH. In the presence of ROS it is oxidized to highly fluorescent DCF. […] Cells were loaded with DCFH-DA (10 μM, 0.5% DMSO (v/v)) and were incubated at 310 K, 5% CO2, high humidity for 30 minutes. The probe was removed and the cells were washed twice with PBS (200 μL). The cells were then kept in Hanks Balanced Salt Solution (HBSS) and the ruthenium compounds were diluted with HBSS and added to the wells (25 μM, 0.5% DMSO (v/v)). Hydrogen peroxide (25 μM) was added as a positive control and the fluorescence was read every 200 seconds over a period of 6.5 hours at 310 K by excitation at 480±10 nm and emission at 538±15 nm on a BMG fluostar plate reader. A time course experiment was performed to follow any increase in fluorescence over 6.5 hours after addition of ruthenium compounds to cells pre-loaded with DFCH-DA.

The nature of data set [4]: Aqueous solution chemistry followed by 1H NMR (hydrolysis, arene loss). The format is physicochemical. As to the method:
NMR-Spectroscopy: All ^1H NMR experiments for characterization of synthesized compounds were recorded on either a Bruker DMX 500 MHz spectrometer equipped with TBI [^1H, ^13C, ^15N] probe-head, equipped with z-field gradients or a Bruker DPX 360 MHz spectrometer. The proton signals were calibrated against the residual solvent peak, δ 7.27 (chloroform), 2.07 (acetone) and 2.52 (DMSO). The 2D ^1H-TOCSY and 2D ^1H COSY experiments for characterization were run on a Bruker DMX 500 MHz spectrometer. 2D-^1H ROESY experiment for characterization was recorded on a Bruker AVA […] spectrometer equipped with a with a TXI [^1H, ^13C, ^15N] probe-head, equipped with z-field gradients. All pH titration experiments were recorded on a Bruker AVA 600 MHz spectrometer where dioxan was added as an internal reference (δ 3.75, in 100% D2O). The water was suppressed using a 1D Double Pulse Field Gradient Spin Echo (DPFGSE) experiment. The aqueous solution behaviour was recorded on a Bruker bio 600 MHz spectrometer equipped with a cryoprobe and the water was suppressed using a 1D Double Pulse Field Gradient Spin Echo (DPFGSE) experiment. The chemical shifts were measured relative to dioxin (internal reference δ 3.75, in 90% H2O/10% D2O). All spectra were recorded using 5 mm quartz tubes at 298 K unless stated otherwise. All NMR data were processed using Xwin-NMR (Version 2.0 Bruker UK Ltd).
The complex was dissolved in H2O/D2O, the pH was taken, and NMR spectra were recorded at uniform time intervals at a fixed temperature using a multi-zg kinetic experiment program. After acquisition, Electrospray Mass Spectrometry was performed on a portion of the NMR solution.
The solution chemistry was followed by ^1H NMR unless stated otherwise.

For data set [5], the system named is A549 cancer cell line. Description: Cytotoxicity: inhibitory growth activity, sulforhodamine B assay. Type of data set: cell-based. Particulars: 24 hours drug exposure, 96 hours recovery, SRB. As to the method:
as §1
The A2780 cancer cell line was maintained by growing the cells in RPMI media supplemented with 5% fetal bovine serum, 1% penicillin/streptomycin and 2 mM L-glutamine. […] The cells were kept incubated at 37° C., 5% CO2, high humidity. The A549 cancer cell line was maintained by growing the cells in DMEM media supplemented with 10% fetal bovine serum, 1% penicillin/streptomycin and 2 mM L-glutamine. […] The cells were kept incubated at 37° C., 5% CO2, high humidity.
A2780 cancer cells were plated out at 50000 cells/well (±10%) on day one. A549 cancer cells were plated out at 20000 cells/well (±10%) on day two. […] The remaining biomass was estimated by the sulforhodamine B assay. The cells were then fixed using 50 μl 50% (w/v) TCA and incubated at 4° C. for one hour. The biomass was stained with 100 μl 0.4% (w/v) sulforhodamine B in 1% acetic acid. The dye was solubilised with Tris Buffer and the absorbance was read using a BMG Fluostar microplate reader at 595 nm. A baseline correction at 690 nm was subtracted from the values. The absorbance for 100% cell survival was based on the average absorbance for the 0.1 μM dosed triplicate for that drug. IC50 values were calculated using XL-Fit version 4.0.

The IC50 is the midpoint of a concentration-inhibition curve. A high value points to weaker potency. On to `CN(C)c1ccc(N=Nc2ccccn2)cc1.Cc1ccc(C(C)C)cc1.F[P-](F)(F)(F)(F)F.[I-].[Ru+2]` [Compound 8, [Ru(p-cymene)(Azpy-NMe2)I]PF6], for which the reduction by ascorbate entry in data set [1] is recorded as “a one electron reduction was occurring”. The values for the IC50 in the data set with A2780 cancer cell line and in the data set on A549 cancer cell line [5] were 5 µM and 3 µM, respectively. Further, the “cell survival of cells pre-treated with NAC versus untreated cells” value in the data set on A549 cancer cell line [2] is “greater cell survival”. For the same compound, the hydrolysis entry in data set [3] is “no hydrolysis had occurred”. The “change in DCF fluorescence over time (ROS generation)” value with A549 cancer cells is “increase in the DCF fluorescence”. Further, the “change of complex in solution” value in data set [4] (100 μM, 99.5% D2O, 0.5% DMSO, 115 mM NaCl, pH=7.5, 37° C., over 24 hours) is “No change occurred”; in data set [4] (saturated solution (filtered), 90% H2O/10% D2O, pH=7.2, 25° C. over 24 hours), “No change occurred”.
